Experimental data as given in patent US20240190860A1, “8-CYCLO-SUBSTITUTED QUINAZOLINE DERIVATIVES AS LPA RECEPTOR 2 INHIBITORS” (CHIESI FARMACEUTICI S.p.A., priority 2021, published 2024).

Molecular target: T1, human recombinant LPA2 expressed in CHO cells (Homo sapiens, UniProt Q9HBW0)
T1 construct: expressed in transfected cells; host or cells: CHO cells (CHO-hLPA2 cell line)
Assay: FLIPR calcium mobilization assay, LPA2 antagonism in CHO-hLPA2 cells
Format: cell-based
Conditions: CHO-hLPA2 cells, inhibition of LPA EC80 Ca2+ response, 30 min pre-incubation; read-out: LPA2 IC50
Method: The effectiveness of compounds of the present invention as LPA2 antagonist can be determined at the human recombinant LPA2 expressed in CHO cells, using a FLIPR assay in 384 well format.
CHO-hLPA2 cell lines are cultured in a humidified incubator at 5% C02 in DMEM/F-12 (1:1) MIXTURE with 2 mM Glutamax, supplemented with 10% of Foetal Bovine Serum, 1 mM Sodium Pyruvate, 11 mM Hepes and 1× Penicillin/Streptomycin. CHO hLPA2 cells are seeded into black walled clear-bottom 384-well plates (#781091, Greiner Bio-One GmbH) at a density of 7,500 cells per well in 50 μl culture media and grown overnight in a 37° C. humidified CO2-incubator. Serial dilutions (1:3 or 1:4, 11 points CRC) of compounds are performed in 100% DMSO at 200× the final concentration. The compounds are diluted 1:50 prior to the experiment with Assay Buffer (20 mM HEPES, 145 mM NaCl, 5 mM KCl, 5.5 mM glucose, 1 mM MgCl2 and 2 mM CaCl2, pH 7.4 containing 0.01% Pluronic F-127) to obtain a solution corresponding to […] the final concentration in the assay (4×, 2% DMSO). The final concentration of DMSO in the assay will be 0.5% in each well. Medium is removed by aspiration and cells are then incubated with 30 μl of a loading solution containing 5 μM of the cytoplasmic Ca2+ indicator Cal-520 AM in Assay Buffer containing 2.5 mM probenecid for 30 min at 37° C. incubator (cell loading). The loaded cell plates are transferred into the FLIPR instrument and calcium responses are monitored during the on-line addition protocols. For testing of compounds, after the cell loading, 10 μl/well of 4× antagonists' solution was added onto the cells. After 30 min pre-incubation (at 37° C.), 10 μl/well of 5× concentrated LPA EC80 was added and Ca2+ mobilization responses was followed during the on-line addition protocol. Intracellular peak fluorescence values subtracted by baseline fluorescence are exported and analysed to determine IC50 values, respectively. The calcium response is expressed as percentage of the maximal inhibition of the EC80 agonist response.
The raw data (peak height expressed as relative fluorescence units) are normalized and transformed into “percent of inhibition”. Curve fitting and pIC50 (−LogIC50) estimations are carried out using a four-parameter logistic model using XLfit Software.

T1 sequence (Q9HBW0 whole entry): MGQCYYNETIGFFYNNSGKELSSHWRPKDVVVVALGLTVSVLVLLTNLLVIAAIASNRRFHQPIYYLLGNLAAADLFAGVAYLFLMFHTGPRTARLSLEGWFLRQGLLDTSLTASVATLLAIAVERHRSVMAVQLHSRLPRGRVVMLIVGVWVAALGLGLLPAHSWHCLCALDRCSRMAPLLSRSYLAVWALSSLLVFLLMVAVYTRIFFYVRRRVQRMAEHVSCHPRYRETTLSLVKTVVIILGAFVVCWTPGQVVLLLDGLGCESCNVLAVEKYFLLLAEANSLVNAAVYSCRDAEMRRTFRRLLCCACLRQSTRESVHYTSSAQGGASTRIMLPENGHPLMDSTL

Compound | IC50 [nM]
COC(=O)Nc1nc(C)c(S(=O)(=O)N2CCN(C[C@H](C)Nc3ncnc4c(-c5cncc(CN6CCCC6)c5)cccc34)CC2)s1 [Example 25, methyl N-[4-methyl-5-({4-[(2S)-2-[(8-{5-[(pyrrolidin-1-yl)methyl]pyridin-3-yl}quinazolin-4-yl)amino]propyl]piperazin-1-yl}sulfonyl)-1,3-thiazol-2-yl]carbamate] | < 10
COC(=O)Nc1nc(C)c(S(=O)(=O)N2CCN(C[C@H](C)Nc3ncnc4c(-c5ccc(N(C)C)nc5)cccc34)CC2)s1 [Example 26, methyl N-[5-({4-[(2S)-2-({8-[6-(dimethylamino)pyridin-3-yl]quinazolin-4-yl}amino)propyl]piperazin-1-yl}sulfonyl)-4-methyl-1,3-thiazol-2-yl]carbamate] | < 10
COC(=O)Nc1nc(C)c(S(=O)(=O)N2CCN(C[C@H](C)Nc3ncnc4c(-c5c(C)n[nH]c5C)cccc34)CC2)s1 [Example 27, methyl N-[5-({4-[(2S)-2-{[8-(3,5-dimethyl-1H-pyrazol-4-yl)quinazolin-4-yl]amino}propyl]piperazin-1-yl}sulfonyl)-4-methyl-1,3-thiazol-2-yl]carbamate] | < 10
COC(=O)Nc1nc(C)c(S(=O)(=O)N2CCN(C[C@H](C)Nc3ncnc4c(-c5ccc(C)nc5)cccc34)CC2)s1 [Example 28, methyl N-[4-methyl-5-({4-[(2S)-2-{[8-(6-methylpyridin-3-yl)quinazolin-4-yl]amino}propyl]piperazin-1-yl}sulfonyl)-1,3-thiazol-2-yl]carbamate] | < 10
COC(=O)Nc1nc(C)c(S(=O)(=O)N2CCN(C[C@H](C)Nc3ncnc4c(-c5ccccn5)cccc34)CC2)s1 [Example 29, methyl N-[4-methyl-5-({4-[(2S)-2-{[8-(pyridin-2-yl)quinazolin-4-yl]amino}propyl]piperazin-1-yl}sulfonyl)-1,3-thiazol-2-yl]carbamate] | < 10
COC(=O)Nc1nc(C)c(S(=O)(=O)N2CCN(C[C@H](C)Nc3ncnc4c(-c5cn(C)nc5C(F)(F)F)cccc34)CC2)s1 [Example 30, methyl N-[4-methyl-5-({4-[(2S)-2-({8-[1-methyl-3-(trifluoromethyl)-1H-pyrazol-4-yl]quinazolin-4-yl}amino)propyl]piperazin-1-yl}sulfonyl)-1,3-thiazol-2-yl]carbamate] | < 10
C[C@@H](CN1CCN(S(=O)(=O)c2ccc(Cl)c(Cl)c2)CC1)Nc1ncnc2c(-c3cccnc3)cccc12 [Example 31, N-[(2S)-1-[4-(3,4-dichlorobenzenesulfonyl)piperazin-1-yl]propan-2-yl]-8-(pyridin-3-yl)quinazolin-4-amine] | < 10
CC(=O)Nc1nc(C)c(S(=O)(=O)N2CCN(C[C@H](C)Nc3ncnc4c(-c5cccnc5)cccc34)CC2)s1 [Example 32, N-[4-methyl-5-({4-[(2S)-2-{[8-(pyridin-3-yl)quinazolin-4-yl]amino}propyl]piperazin-1-yl}sulfonyl)-1,3-thiazol-2-yl]acetamide] | < 10
Cc1cc(C(=O)Nc2nc(C)c(S(=O)(=O)N3CCN(C[C@H](C)Nc4ncnc5c(-c6cccnc6)cccc45)CC3)s2)no1 [Example 33, 5-methyl-N-[4-methyl-5-({4-[(2S)-2-{[8-(pyridin-3-yl)quinazolin-4-yl]amino}propyl]piperazin-1-yl}sulfonyl)-1,3-thiazol-2-yl]-1,2-oxazole-3-carboxamide] | < 10
COC(=O)Nc1nc(C)c(S(=O)(=O)N2CCN(C[C@H](C)Nc3ncnc4c(-c5cnc(C)nc5)cccc34)CC2)s1 [Example 34, methyl N-[4-methyl-5-({4-[(2S)-2-{[8-(2-methylpyrimidin-5-yl)quinazolin-4-yl]amino}propyl]piperazin-1-yl}sulfonyl)-1,3-thiazol-2-yl]carbamate] | 10 to 100
COC(=O)Nc1nc(C)c(S(=O)(=O)N2CCN(C[C@H](C)Nc3ncnc4c(-c5cccc(N6CCN(C)CC6)c5)cccc34)CC2)s1 [Example 35, methyl N-[4-methyl-5-({4-[(2S)-2-({8-[3-(4-methylpiperazin-1-yl)phenyl]quinazolin-4-yl}amino)propyl]piperazin-1-yl}sulfonyl)-1,3-thiazol-2-yl]carbamate] | < 10
COC(=O)Nc1nc(C)c(S(=O)(=O)N2CCN(C[C@H](C)Nc3ncnc4c(-c5ccc(N6CCN(C)CC6)cc5)cccc34)CC2)s1 [Example 36, methyl N-[4-methyl-5-({4-[(2S)-2-({8-[4-(4-methylpiperazin-1-yl)phenyl]quinazolin-4-yl}amino)propyl]piperazin-1-yl}sulfonyl)-1,3-thiazol-2-yl]carbamate] | < 10
CC(=O)Nc1ncc(S(=O)(=O)N2CCN(C[C@H](C)Nc3ncnc4c(-c5cccnc5)cccc34)CC2)s1 [Example 37, N-[5-({4-[(2S)-2-{[8-(pyridin-3-yl)quinazolin-4-yl]amino}propyl]piperazin-1-yl}sulfonyl)-1,3-thiazol-2-yl]acetamide] | < 10
C[C@@H](CN1CCN(S(=O)(=O)c2ccc3[nH]c(=O)sc3c2)CC1)Nc1ncnc2c(-c3cccnc3)cccc12 [Example 38, 6-({4-[(2S)-2-{[8-(pyridin-3-yl)quinazolin-4-yl]amino}propyl]piperazin-1-yl}sulfonyl)-2,3-dihydro-1,3-benzothiazol-2-one] | < 10
Cc1nc(NCCN(C)C)sc1S(=O)(=O)N1CCN(C[C@H](C)Nc2ncnc3c(-c4c(C)n[nH]c4C)cccc23)CC1 [Example 39, 8-(3,5-dimethyl-1H-pyrazol-4-yl)-N-[(2S)-1-{4-[(2-{[2-(dimethylamino)ethyl]amino}-4-methyl-1,3-thiazol-5-yl)sulfonyl]piperazin-1-yl}propan-2-yl]quinazolin-4-amine] | 10 to 100
COC(=O)Nc1nc(C)c(S(=O)(=O)N2CCN(C[C@H](C)Nc3ncnc4c(-c5cncnc5)cccc34)CC2)s1 [Example 40, methyl N-[4-methyl-5-({4-[(2S)-2-{[8-(pyrimidin-5-yl)quinazolin-4-yl]amino}propyl]piperazin-1-yl}sulfonyl)-1,3-thiazol-2-yl]carbamate] | < 10
COC(=O)Nc1nc(C)c(S(=O)(=O)N2CCN(C[C@H](C)Nc3ncnc4c(C5CC5)cccc34)CC2)s1 [Example 41, methyl N-[5-({4-[(2S)-2-[(8-cyclopropylquinazolin-4-yl)amino]propyl]piperazin-1-yl}sulfonyl)-4-methyl-1,3-thiazol-2-yl]carbamate] | 10 to 100
CC(=O)Nc1cc(F)c(S(=O)(=O)N2CCN(C[C@H](C)Nc3ncnc4c(-c5cccnc5)cccc34)CC2)cc1C [Example 42, N-[5-fluoro-2-methyl-4-({4-[(2S)-2-{[8-(pyridin-3-yl)quinazolin-4-yl]amino}propyl]piperazin-1-yl}sulfonyl)phenyl]acetamide] | 10 to 100
CC(=O)N1CCc2cc(S(=O)(=O)N3CCN(C[C@H](C)Nc4ncnc5c(-c6cccnc6)cccc45)CC3)ccc21 [Example 43, 1-[5-({4-[(2S)-2-{[8-(pyridin-3-yl)quinazolin-4-yl]amino}propyl]piperazin-1-yl}sulfonyl)-2,3-dihydro-1H-indol-1-yl]ethan-1-one] | < 10
COC(=O)Nc1nc(C)c(S(=O)(=O)N2CCN(C[C@H](C)Nc3ncnc4c(-c5ccnc(N6CCN(C)CC6)c5)cccc34)CC2)s1 [Example 44, methyl N-[4-methyl-5-({4-[(2S)-2-({8-[2-(4-methylpiperazin-1-yl)pyridin-4-yl]quinazolin-4-yl}amino)propyl]piperazin-1-yl}sulfonyl)-1,3-thiazol-2-yl]carbamate] | < 10
C[C@@H](CN1CCN(S(=O)(=O)c2ccc3[nH]c(=O)sc3c2)CC1)Nc1ncnc2c(-c3cccc(CN(C)C)c3)cccc12 [Example 45, 6-({4-[(2S)-2-[(8-{3-[(dimethylamino)methyl]phenyl}quinazolin-4-yl)amino]propyl]piperazin-1-yl}sulfonyl)-2,3-dihydro-1,3-benzothiazol-2-one] | < 10
C[C@@H](CN1CCN(S(=O)(=O)c2ccc(Cl)c(Cl)c2)CC1)Nc1ncnc2c(-c3cccc(CN(C)C)c3)cccc12 [Example 46, N-[(2S)-1-[4-(3,4-dichlorobenzenesulfonyl)piperazin-1-yl]propan-2-yl]-8-{3-[(dimethylamino)methyl]phenyl}quinazolin-4-amine] | < 10
COC(=O)Nc1ncc(S(=O)(=O)N2CCN(C[C@H](C)Nc3ncnc4c(-c5cccnc5)cccc34)CC2)s1 [Example 47, methyl N-[5-({4-[(2S)-2-{[8-(pyridin-3-yl)quinazolin-4-yl]amino}propyl]piperazin-1-yl}sulfonyl)-1,3-thiazol-2-yl]carbamate] | < 10
